Like-named read-outs stand apart in the source and are kept apart here.
Columns and labels:
[1] = rat in vivo measurements; cited from earlier work
[2] = rat, in vivo
[3] = cited from earlier work
[4] = In situ rat brain perfusion (brain uptake Kin, extraction E, BBB PS); conditions: for Log Pc: Pc in cm/s; for Log Po: Po in cm/s; for Log PoS: PoS in mL/s/g; for PcS: cerebral cortex, S = physiological saline, AB = artificial blood; for Pc / Po: S assumed 100 cm^2/g
[5] = cited from earlier work; for Log Poct: octanol partition coefficient
[6] = Neutral fraction at pH 7.4 calculated from pKa; type: physicochemical
[7] = rat
[8] = for Brain Kin: calculated at brain blood flow […] and rat serum fu; for Extraction (unbound) / Brain vascular extraction (total): calculated at brain blood flow […]; for Extraction (unbound): free drug; for Brain vascular extraction (total): with rat serum fu
[9] = intrinsic PS of neutral solute, PoS = PcS/fn, flow 0.1–[…]
[10] = ref Hansch et al. [123], Avdeef [46] or other sources
[11] = neutral fraction at perfusion fluid pH 7.40, calculated from pKa

Compound | Brain Vu,br [1] [mL/g] | fu,.p ([3]; rat in vivo measurements) | Log Pc [4] | Log Po [4] | Log PoS [4] | PoS ([4]; brain vascular intrinsic PoS) [mL/s/g] | PcS ([4]; flow 0.1–[…]) [mL/s/g] | PoS [4, 9] [mL/s/g] | Log Poct [5, 10] | Log Doct pH=7.4 [5, 10] | fn (%) [6, 11] [%] | Log Pc ([2]; pH 7.4) | Log PoS ([2]; pH 7.4) | Pc ([2]; pH 7.4) [cm/s] | PcS ([2]; pH 7.4) [mL/s/g] | PoS ([2]; pH 7.4) [mL/s/g] | Log Po ([2]; pH 7.4) | Po ([2]; pH 7.4) [cm/s] | other results
OCCCO [1,3 Propanediol] | 1.02 | 1.00 | −4.29 | −4.29 | −2.29 | 0.00516 | 0.0052 | 0.00516 | −0.92 | −0.92 | 100 |  |  |  |  |  |  |  | Pc [2]: 5.16e-05 cm/s; Po [2]: 5.16e-05 cm/s
OCCCCO [1,4-Butanediol] |  |  |  |  |  |  |  |  |  |  |  | −3.82 | −1.82 | 0.000151 | 0.015 | 0.0151 | −3.82 | 0.000151 | fu,.p ([3]; rat): 1.00; half-life [7]: 1.14 min; Log Doct pH=7.4 [5]: −0.52; fn (%) ([6]; pH 7.4): 100%
Nc1c(O)cccc1C(=O)O [3-hydroxy-anthranilic acid] |  | 1.00 |  |  |  |  |  |  | 1.05 | −1.78 | 0.15 | −5.88 | −1.05 | 1.31e-06 | 0.00013 | 0.0886 | −3.05 | 0.000886 | Brain Kin [8]: 0.000131 mL/s/g; Extraction (unbound) [8]: 0.54%; Brain vascular extraction (total) [8]: 0.54%
Nc1ccccc1C(=O)O [Anthranilic acid] |  | 0.50 | −4.92 | −2.44 | −0.44 | 0.36 | 0.0012 | 0.36 | 1.21 | −1.27 | 0.33 |  |  |  |  |  |  |  | Pc [4]: 1.19e-05 cm/s; Po [4]: 0.0036 cm/s
O=C(O)CCCc1ccc(N(CCCl)CCCl)cc1 [Chlorambucil] |  | 0.01 |  |  |  |  |  |  | 3.41 | 0.61 | 0.16 | −3.54 | 1.26 | 0.000287 | 0.029 | 18.14 | −0.74 | 0.18 | Brain Equilibration t1/2, Measured ([2]; pH 7.4): 0.75 min; half-life [7]: 1.23 min; half-life ([7]; plasma): 1.2 min
CN(C)CCCN1c2ccccc2Sc2ccc(Cl)cc21 [Chlorpromazine] |  | 0.0354 |  |  |  |  |  |  |  |  | 1.42 | −2.51 | 1.30 | 0.00309 | 0.31 | 19.8 | −0.70 | 0.20 | BBB PcS ([2]; pH 7.4): 0.31 ± 0.05 mL/s/g; Extraction (Kin/F) ([2]; pH 7.4): 100%; half-life ([7]; brain): 61.1 min; Brain Kin [8]: 0.00885 mL/s/g; Extraction (unbound) [8]: 100%; Brain vascular extraction (total) [8]: 36.6%; Maximal flow—90% extraction, PcS/2.3 ([8]; protein-free saline, pH 7.4): 0.13 mL/s/g
CN1C(=O)CN=C(c2ccccc2F)c2cc([N+](=O)[O-])ccc21 [Flunitrazepam] |  | 0.19 |  |  |  |  |  |  | 2.03 | 2.03 | 100 |  |  |  |  |  |  |  | Best fit PcS ([2]; pH 7.4): 0.14 mL/s/g
CC(C)Cc1ccc(C(C)C(=O)O)cc1 (centres unmarked) [Ibuprofen] | 3.38 | 0.016 |  |  |  |  |  |  |  |  | 0.11 |  |  |  |  |  |  |  | 
NC(=O)CI [Iodoacetamide] | 1.11 | 0.92 | −4.04 | −4.04 | −2.04 | 0.00917 | 0.0092 | 0.00917 | −0.19 | −0.19 | 100 |  |  |  |  |  |  |  | Pc [4]: 9.17e-05 cm/s; Po [4]: 9.17e-05 cm/s
CC(C)NC(C)Cc1ccc(I)cc1 (centres unmarked) [Iofetamine, isopropyl-iodoamphetamine] |  | 0.25 | −2.54 | −1.02 | 0.98 | 9.49 | 0.29 | 9.49 | 3.26 | 1.75 | 3.07 |  |  |  |  |  |  |  | half-life [7]: 3.16 min; Maximal flow—90% extraction, PcS/2.3 ([8]; pH 7.4): 0.13 mL/s/g; Peak flow rate for 90% E ([8]; pH 7.4): 7.6 mL/min/g; Pc [4]: 0.00291 cm/s; Po [4]: 0.0949 cm/s; BBB PcS ([4]; protein-free saline, differing/elevated flow rates, best fit): 0.238 mL/s/g
CO [Methanol] | 1.06 | 1.00 | −3.56 | −3.56 | −1.56 | 0.0278 | 0.028 | 0.0278 | −0.52 | −0.52 | 100 |  |  |  |  |  |  |  | Pc [4]: 0.000278 cm/s; Po [4]: 0.000278 cm/s
CCC1(c2ccccc2)C(=O)NC(=O)NC1=O [Phenobarbital] |  | 0.25 |  |  |  |  |  |  | 1.53 | 1.51 | 47.7 | −4.19 | −1.86 | 6.51e-05 | 0.0065 | 0.0136 | −3.86 | 0.000136 | half-life [7]: 7.39 min
Cn1c(=O)c2[nH]cnc2n(C)c1=O [Theophylline] |  |  |  |  |  |  |  |  | 0.00 | 0.00 | 100 |  |  |  |  |  |  |  | half-life ([7]; brain): 4.6 min
CCCCNC(=O)NS(=O)(=O)c1ccc(C)cc1 [Tolbutamide] |  |  |  |  |  |  |  |  |  |  | 0.61 |  |  |  |  |  |  |  | half-life ([7]; brain): 3.27 min
CC(=O)CC(c1ccccc1)c1c(O)c2ccccc2oc1=O (centres unmarked) [Warfarin] | 3.03 | 8.0E−03 |  |  |  |  |  |  |  |  | 0.01 | −4.15 | 1.71 | 7.06e-05 | 0.0071 | 51.2 | −0.29 | 0.51 | 
CC(C)(C)OC(=O)CCCc1ccc(N(CCCl)CCCl)cc1 [t-butyl chlorambucil] |  | 2.0E−03 |  |  |  |  |  |  | 5.24 | 5.24 | 100 |  |  |  |  |  |  |  | Brain Extraction (%) [2]: 24%; Log Pc [2]: −0.49; Log PoS [2]: 1.51; Pc [2]: 0.321 cm/s; PcS [2]: 32.1 mL/s/g; PoS [2]: 32.1 mL/s/g; Log Po [2]: −0.49; Po [2]: 0.32 cm/s; Maximal flow—90% extraction, PcS/2.3 ([8]; pH 7.4): 14.0 mL/s/g; Log Poct ([5]; ref Hansch et al. [123], Avdeef [46] or other sources, listed as t-butyl-chlorambucil): 5.2
Erythrosine B |  |  |  |  |  |  |  |  |  |  | 7.8E−06 |  |  |  |  |  |  |  | Log Pc [2]: −5.19; Log PoS [2]: 3.92; Pc [2]: 6.53e-06 cm/s; PcS [2]: 0.00065 mL/s/g; Log Po [2]: 1.92; Po [2]: 83.48 cm/s; fu,.p ([3]; rat): 0.01; Brain Kin [8]: 6.53e-06 mL/s/g; Extraction (unbound) [8]: 2.7%; Brain vascular extraction (total) [8]: 0.027%; Log Doct pH=7.4 [5]: −0.15
Inulin | 0.02 | 1.00 | −8.12 | −8.12 | −6.12 | 7.5e-07 | 7.5e-07 | 7.5e-07 | −4.36 | −4.13 | 89.0 |  |  |  |  |  |  |  | Pc [4]: 7.5e-09 cm/s; Po [4]: 7.5e-09 cm/s
